Assays:
[1] = Caffeine and paraxanthine in plasma of ALS patients vs peripheral neuropathy or myopathy patients (Examples 6, 7; Tables 12, 13); type: in vivo, human
Protocol: All research participants provided informed consent. A board-certified neurologist reviewed and confirmed diagnosis for all participants. Data on gender, age, weight, and medications was collected. For participants with ALS, date and site of symptom onset, date of diagnosis, and family history of ALS was recorded.

[2] = Metabolomics demographic study of plasma from 270 healthy volunteers of various ages (Table 11); type: in vivo, human; conditions: normal adults
[3] = Caffeine and caffeine metabolites in plasma of ALS patients vs healthy control subjects (Examples 4, 5; Tables 9, 10)
Protocol: Metabolomic analysis of two independent ALS studies was carried out to assess the changes of metabolite levels in plasma from ALS patients relative to healthy control subjects. Thirty-one healthy control volunteers and 31 participants with ALS enrolled in Study 1. Study 2 was comprised of ninety-nine participants with ALS and 94 healthy volunteers. All research participants provided informed consent. A board-certified neurologist reviewed and confirmed diagnosis for all participants. Data on gender, age, weight, and medications was collected. For participants with ALS, date and site of symptom onset, date of diagnosis, and family history of ALS was recorded. Healthy control subjects were defined by the absence of a known neurological disorder.
A measure of caffeine clearance rate is reflected in the ratio of caffeine metabolites to caffeine.

Row | SMILES | Paraxanthine/Caffeine Ratio ([1]; ALS) | Paraxanthine/Caffeine Ratio ([1]; Myopathy) | Paraxanthine/Caffeine Ratio ([1]; PN) | Paraxanthine/Caffeine (P/C) Ratio ([2]; age 25-35) | Paraxanthine/Caffeine (P/C) Ratio ([2]; age 36-50) | Paraxanthine/Caffeine (P/C) Ratio ([2]; age 51-65) | Theophylline/Caffeine (T/C) Ratio ([3]; ALS subjects) | Theophylline/Caffeine (T/C) Ratio ([3]; Control subjects)
1 | Cn1c(=O)[nH]c2ncn(C)c2c1=O [Paraxanthine, 1-7-dimethylxanthine] | 0.7389 | 0.4900 | 0.0294 | 1.1467 | 1.0358 | 0.7105 |  | 
2 | Cn1c(=O)c2[nH]cnc2n(C)c1=O [Theophylline] |  |  |  |  |  |  | 1.3684 | 0.8857

Source: patent US8841077B2, “Biomarkers for amyotrophic lateral sclerosis and methods using the same” (Massachusetts General Hospital, priority 2006, dated 2014)
